# From the supplement of paper PMC10307832
# What was measured:
# Experiment in all cases: relative viability (nuclei count vs DMSO), 5 days (fraction); higher = more cells survive
# MK-2206 + Lapatinib = compound: NC1(c2ccc(-c3nc4ccn5c(=O)[nH]nc5c4cc3-c3ccccc3)cc2)CCC1 [MK-2206] + CS(=O)(=O)CCNCc1ccc(-c2ccc3ncnc(Nc4ccc(OCc5cccc(F)c5)c(Cl)c4)c3c2)o1 [Lapatinib] (partner 2 µM)
# Outline: (§1)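 Relative viability is defined as nuclei in treated wells over nuclei in vehicle wells. Duplicate plates were run and medians reported. Lung cancer cell lines in 1536-well plates were dosed by pin tool one day after seeding, with one drug or with a fixed anchor-drug dose plus five library-drug doses (not always all listed) in √10 steps, and nuclei were counted after 5 days.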
# Pictilisib + Navitoclax = compound: CS(=O)(=O)N1CCN(Cc2cc3nc(-c4cccc5[nH]ncc45)nc(N4CCOCC4)c3s2)CC1 [Pictilisib] + CC1(C)CCC(c2ccc(Cl)cc2)=C(CN2CCN(c3ccc(C(=O)NS(=O)(=O)c4ccc(N[C@H](CCN5CCOCC5)CSc5ccccc5)c(S(=O)(=O)C(F)(F)F)c4)cc3)CC2)C1 [Navitoclax] (partner 0.5 µM)
# Outline: as §1
# Pictilisib + AZD7762 = compound: CS(=O)(=O)N1CCN(Cc2cc3nc(-c4cccc5[nH]ncc45)nc(N4CCOCC4)c3s2)CC1 [Pictilisib] + NC(=O)Nc1cc(-c2cccc(F)c2)sc1C(=O)N[C@H]1CCCNC1 [AZD7762] (partner 0.2 µM)
# Outline: as §1
# Pictilisib + Foretinib = compound: CS(=O)(=O)N1CCN(Cc2cc3nc(-c4cccc5[nH]ncc45)nc(N4CCOCC4)c3s2)CC1 [Pictilisib] + COc1cc2c(Oc3ccc(NC(=O)C4(C(=O)Nc5ccc(F)cc5)CC4)cc3F)ccnc2cc1OCCCN1CCOCC1 [Foretinib] (partner 0.25 µM)
# Outline: as §1
# MK-2206 + Bortezomib = compound: NC1(c2ccc(-c3nc4ccn5c(=O)[nH]nc5c4cc3-c3ccccc3)cc2)CCC1 [MK-2206] + CC(C)C[C@H](NC(=O)[C@H](Cc1ccccc1)NC(=O)c1cnccn1)B(O)O [Bortezomib] (partner 0.002 µM)
# Outline: as §1
Cell Line,relative viability (MK-2206 + Lapatinib; first compound 0.01 µM),relative viability (MK-2206 + Lapatinib; first compound 0.03162 µM),relative viability (MK-2206 + Lapatinib; first compound 0.3162 µM),relative viability (MK-2206 + Lapatinib; first compound 1 µM),relative viability (Pictilisib + Navitoclax; first compound 0.02 µM),relative viability (Pictilisib + Navitoclax; first compound 0.06325 µM),relative viability (Pictilisib + Navitoclax; first compound 0.6325 µM),relative viability (Pictilisib + Navitoclax; first compound 2 µM),relative viability (Pictilisib + AZD7762; first compound 0.02 µM),relative viability (Pictilisib + AZD7762; first compound 0.06325 µM),relative viability (Pictilisib + AZD7762; first compound 0.6325 µM),relative viability (Pictilisib + AZD7762; first compound 2 µM),relative viability (Pictilisib + Foretinib; first compound 0.02 µM),relative viability (Pictilisib + Foretinib; first compound 0.06325 µM),relative viability (Pictilisib + Foretinib; first compound 0.6325 µM),relative viability (Pictilisib + Foretinib; first compound 2 µM),relative viability (MK-2206 + Bortezomib; first compound 0.01 µM),relative viability (MK-2206 + Bortezomib; first compound 0.03162 µM),relative viability (MK-2206 + Bortezomib; first compound 0.3162 µM),relative viability (MK-2206 + Bortezomib; first compound 1 µM)
HOP-62,0.946,1.12,0.939,1.26,0.955,1.1,1.06,1.01,0.759,0.668,0.469,0.459,1.05,1.16,1.05,1.03,0.726,0.759,0.429,0.743
H3255,0.268,0.224,0.18,0.192,0.626,0.516,0.498,0.173,0.814,0.8,0.832,0.578,0.813,0.884,0.571,0.494,0.718,0.977,0.718,0.564
NCI-H1734,0.758,1.05,0.789,0.869,0.797,0.874,0.554,0.264,0.559,0.537,0.357,0.192,0.918,0.641,0.579,0.35,0.847,1.02,0.66,0.725
NCI-H1792,0.84,0.983,0.909,0.92,0.641,0.728,0.383,0.226,0.631,0.575,0.339,0.109,,,,,0.985,1,0.979,0.923
EKVX,0.2,0.207,0.17,0.179,0.971,0.958,0.675,0.377,0.732,0.703,0.41,0.315,0.855,0.88,0.721,0.438,0.996,1.21,0.705,0.649
EPLC-272H,1.06,0.916,,1.33,1.32,1.05,1.01,0.733,0.25,0.279,0.173,0.14,0.711,0.687,0.376,0.173,1.05,1.06,,1.01
LK-2,1.03,1.05,0.863,0.854,0.879,0.585,0.63,0.321,0.357,0.392,0.147,0.0792,0.999,0.885,0.812,0.347,,,,
CAL-12T,0.682,0.698,0.667,0.454,1.29,1.24,1.2,1.07,0.609,0.845,0.724,0.626,1.09,1.14,1.08,0.918,0.971,0.928,0.947,0.963
NCI-H322M,0.599,0.634,0.604,0.68,1.23,1.22,0.956,1.14,0.55,0.607,0.495,0.339,0.936,0.985,0.792,0.559,1.12,1.35,1.31,1.41
NCI-H2405,1.07,1.19,0.809,0.859,0.981,0.871,0.594,0.5,0.784,0.629,0.427,0.264,1.01,0.965,0.847,0.562,0.96,1.1,0.958,0.987
LCLC-103H,,,,,,,,,0.803,0.728,0.588,0.456,0.77,0.634,0.403,0.393,1.04,1.03,1.02,1.07
HCC-44,1.01,1.01,1.05,1.07,0.974,0.848,0.866,0.622,0.978,0.994,1.05,1.22,,,,,0.921,0.86,0.877,0.874
RERF-LC-KJ,0.871,0.902,0.723,0.787,0.93,0.728,0.91,0.5,0.999,0.916,0.855,0.55,0.879,0.847,0.709,0.627,1.06,1.12,0.876,1.02
NCI-H1975,0.837,0.996,0.781,0.534,1.02,0.936,0.707,0.314,0.816,0.62,0.466,0.225,0.834,0.902,0.603,0.25,0.464,0.34,0.28,0.261
LCLC-97TM1,1.67,1.35,0.697,0.52,0.288,0.768,0.221,0.107,0.34,0.469,0.258,0.133,0.991,0.972,0.714,0.239,0.415,0.593,0.39,0.44
A-427,1.11,1.03,1.09,1.12,0.952,0.785,1.04,0.809,0.796,0.738,0.556,0.403,1.15,0.929,1,0.604,0.912,1,1.02,0.931
ABC-1,1.32,1.29,1.08,1.13,,,,,1,0.741,0.657,0.609,1.37,0.903,0.863,0.803,0.302,0.219,0.43,0.352

Cell Line,relative viability (MK-2206 + Lapatinib; first compound 0.01 µM),relative viability (MK-2206 + Lapatinib; first compound 0.03162 µM),relative viability (MK-2206 + Lapatinib; first compound 0.3162 µM),relative viability (MK-2206 + Lapatinib; first compound 1 µM),relative viability (Pictilisib + Navitoclax; first compound 0.02 µM),relative viability (Pictilisib + Navitoclax; first compound 0.06325 µM),relative viability (Pictilisib + Navitoclax; first compound 0.6325 µM),relative viability (Pictilisib + Navitoclax; first compound 2 µM),relative viability (Pictilisib + AZD7762; first compound 0.02 µM),relative viability (Pictilisib + AZD7762; first compound 0.06325 µM),relative viability (Pictilisib + AZD7762; first compound 0.6325 µM),relative viability (Pictilisib + AZD7762; first compound 2 µM),relative viability (Pictilisib + Foretinib; first compound 0.02 µM),relative viability (Pictilisib + Foretinib; first compound 0.06325 µM),relative viability (Pictilisib + Foretinib; first compound 0.6325 µM),relative viability (Pictilisib + Foretinib; first compound 2 µM),relative viability (MK-2206 + Bortezomib; first compound 0.01 µM),relative viability (MK-2206 + Bortezomib; first compound 0.03162 µM),relative viability (MK-2206 + Bortezomib; first compound 0.3162 µM),relative viability (MK-2206 + Bortezomib; first compound 1 µM)
NCI-H460,0.914,1.3,0.914,0.95,1.15,1.07,0.563,0.201,0.72,0.66,0.627,0.183,1.01,0.978,0.883,0.243,1.03,1.2,0.97,1.06
NCI-H1395,1.01,1.3,0.774,0.759,1.17,1.27,0.99,0.6,0.44,0.416,0.375,0.338,0.966,1.01,0.962,0.588,,,,
NCI-H23,0.982,0.98,1.16,1.1,0.852,0.899,0.665,0.372,0.203,0.258,0.209,0.155,0.919,0.94,0.778,0.437,0.906,1.04,0.91,0.975
LOU-NH91,0.786,0.739,0.603,0.584,0.822,0.735,0.573,0.408,0.803,0.718,0.567,0.495,0.73,0.886,0.834,0.738,0.466,0.521,0.47,0.443
NCI-H358,0.47,0.41,0.394,0.376,,,,,0.542,0.521,0.335,0.267,0.749,0.763,0.548,0.274,,,,
NCI-H2126,0.803,0.739,0.75,0.737,0.855,0.836,0.747,0.636,1.02,1.01,0.956,0.716,1.23,1.14,0.931,0.423,1.09,1.11,1.07,1.06
ChaGo-K-1,,,,,1.19,1.32,0.987,0.826,0.858,0.913,0.864,0.784,0.896,0.924,0.838,0.721,1.09,0.993,0.924,0.763
NCI-H1437,0.778,0.783,0.815,0.475,1.16,1.14,1.04,0.677,1.13,1.07,1.09,0.903,1.23,1.29,1.36,0.96,0.521,0.531,0.444,0.529
NCI-H838,1.04,1.18,1.01,0.675,1.12,1.04,1.01,0.61,0.906,0.747,0.928,0.809,0.973,0.895,0.929,0.45,0.822,0.916,0.836,0.751
NCI-H1755,1.02,1.05,0.965,0.962,1.01,1,0.889,0.571,0.452,0.387,0.354,0.298,0.901,0.883,0.778,0.58,0.96,0.99,0.838,0.689
NCI-H1915,0.954,0.984,0.978,1.02,0.811,0.789,0.797,0.789,0.681,0.716,0.579,0.525,1.07,1.12,1.1,1.02,0.969,1.02,0.983,0.862
NCI-H650,0.985,1.07,0.874,0.721,,,,,0.806,0.95,0.998,0.655,0.984,1.09,1,0.877,0.898,0.932,0.642,0.656
NCI-H441,,,,,0.856,0.64,0.505,0.413,1.18,1.11,1.11,0.7,0.929,0.749,0.745,0.539,0.841,0.575,0.223,0.233
NCI-H1944,0.829,0.849,0.823,0.904,1.04,0.99,0.974,0.394,0.555,0.477,0.319,0.236,0.866,0.737,0.627,0.382,,,,
NCI-H2170,0.312,0.276,0.263,0.258,0.619,0.487,0.452,0.231,0.879,0.917,0.645,0.422,1,0.983,0.827,0.772,,,,
NCI-H1793,0.616,0.742,0.745,0.617,0.397,0.388,0.308,0.171,0.449,0.404,0.226,0.142,0.563,0.448,0.415,0.21,,,,
